Experiments:
[1] = test system: explanted guts; assay: Cell clustering and collagen 1 remodeling in explanted embryonic guts; conditions: explanted guts of embryonic mice treated with inhibitor; results not shown
Procedure: (§1) Blebbistatin (Abcam ab120491) and staurosporine (Sigma-Aldrich S5921) were added to cell media at the indicated concentrations by serial dilution from 10 mM DMSO stocks.
(§2) FIG. 21. (A). Gut villi in embryonic mice form in concert with condensation of PDGFR-positive mesenchymal fibroblasts at sites of villus curvature. These clusters are associated with local alignment and compaction of collagen 1 fibrils against the E-cadherin-positive epithelium. […] B) Feather buds in embryonic chickens form from a flat epithelium, and can be visualized with non-specific ethidium bromide staining Chick skin explants at Hamburger-Hamilton (HH) stage 32 form feather buds in culture, but feather bud spacing and height are disrupted in the presence of blebbistatin.

[2] = test system: Chick skin explants; assay: Feather bud formation in chick skin explants in culture; design: species or system chickens; conditions: chick skin explants at Hamburger-Hamilton (HH) stage 32 in culture
Procedure: as §1, §2

[3] = test system: mesenchymal-like carcinoma cells; assay: Unfolding of pre-folded isotropic reconstituted tissues after ablating actuator cells; assay type: cell-based
Procedure: as §1
Curvatures reported for cap reconstituted tissues were generated by radially reslicing and thresholding in ImageJ after manually picking the center of reconstituted tissues to serve as origin points. Radial slices were read into MATLAB and least-squares fitted to circles. Anisotropic curvatures were similarly generated for the indicated cutting planes and folds.

[4] = test system: mesenchymal-like carcinoma cells; assay: Efficacy of staurosporine on cells cultured on standard tissue culture plastic (cell viability); assay type: cell-based; conditions: 20 μM, n=6
Procedure: as §1

| Compound | cell clustering and collagen 1 remodeling [1] | feather bud spacing and height [2] | pre-folded isotropic tissue curvatures (maximum curvature relative to average maximum curvature prior to addition) ([3]; 20 μM, n=4 reconstituted tissues per condition) | unfolding of pre-folded tissues ([3]; upon inducing apoptosis of condensing cells using staurosporine (FIG. 13)) | cell death (cell viability) [4] |
| --- | --- | --- | --- | --- | --- |
| Cc1ccc2c(c1)C(=O)C1(O)CCN(c3ccccc3)C1=N2 (centres unmarked) [blebbistatin] | does not occur | disrupted | – | – | – |
| CN[C@@H]1C[C@H]2O[C@@](C)([C@@H]1OC)n1c3ccccc3c3c4c(c5c6ccccc6n2c5c31)C(=O)NC4 [staurosporine] | – | – | modest reductions | less than 40% | nearly complete cell death |

Reference: US10920190B2, “Folding biological tissue via programmed cellular contractility” (The Regents of the University of California, priority 2016, dated 2021)
